# Test results from patent US12692269B2, “Therapeutic compounds” (Genentech, Inc., priority 2019, dated 2026).
# pEC50: −log10 of the molar value.
# Columns and labels:
# Type in all cases: binding
# TEAD1 YAP50-100 = TEAD1 YAP50-100 (Homo sapiens, UniProt P28347); test: TEAD1-YAP HTRF (TR-FRET) protein-protein interaction assay; conditions: TEAD1, YAP peptide 50-100, HTRF; for pEC50: read-out: TEAD1 YAP50-100 HTRF combined: EC50
# Procedure, shortened: (§1)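 Compounds were given 30 min to bind Eu anti-His-labelled TEAD (His-tagged, aa 217-447) before streptavidin-XL665-coupled biotin-YAP 50-100 or biotin-TAZ 13-57 peptide went in for a further 60 min at room temperature. Loss of 665/615 nm TR-FRET ratio gave IC50/EC50 via four-parameter curve fit.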
# TEAD2 YAP50-100 = TEAD2 YAP50-100 (Homo sapiens, UniProt Q15562); test: TEAD2-YAP HTRF (TR-FRET) protein-protein interaction assay; conditions: TEAD2, YAP peptide 50-100, HTRF; for pEC50: read-out: TEAD2 YAP50-100 HTRF combined: EC50
# Sequence of TEAD2 YAP50-100 (Q15562 217-447): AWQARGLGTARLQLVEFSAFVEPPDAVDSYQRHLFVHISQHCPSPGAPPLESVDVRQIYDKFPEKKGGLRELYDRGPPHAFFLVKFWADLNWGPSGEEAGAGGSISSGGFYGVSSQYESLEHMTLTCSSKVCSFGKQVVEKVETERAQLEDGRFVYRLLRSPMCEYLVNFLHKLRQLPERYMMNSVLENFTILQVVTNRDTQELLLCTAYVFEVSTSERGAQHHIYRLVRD
# Procedure, shortened: as §1
# TEAD3 YAP50-100 = TEAD3 YAP50-100 (Homo sapiens, UniProt Q99594); test: TEAD3-YAP HTRF (TR-FRET) protein-protein interaction assay; conditions: TEAD3, YAP peptide 50-100, HTRF; for pEC50: read-out: TEAD3 YAP50-100 HTRF combined: EC50
# Sequence of TEAD3 YAP50-100 (Q99594 173-435 limits assumed): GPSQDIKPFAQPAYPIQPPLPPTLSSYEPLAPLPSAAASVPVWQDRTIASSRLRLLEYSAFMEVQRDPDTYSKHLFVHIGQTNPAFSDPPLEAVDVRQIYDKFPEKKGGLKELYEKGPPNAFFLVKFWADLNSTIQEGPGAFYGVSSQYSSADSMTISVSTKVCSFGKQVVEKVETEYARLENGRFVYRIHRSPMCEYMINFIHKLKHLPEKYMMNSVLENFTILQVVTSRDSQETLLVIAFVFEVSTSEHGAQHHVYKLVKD
# Procedure, shortened: as §1
# TEAD4 YAP50-100 = TEAD4 YAP50-100 (Homo sapiens, UniProt Q15561); test: TEAD4-YAP HTRF (TR-FRET) protein-protein interaction assay; conditions: TEAD4, YAP peptide 50-100, HTRF; for pEC50: read-out: TEAD4 YAP50-100 HTRF combined: EC50
# Sequence of TEAD4 YAP50-100 (Q15561 217-434 limits assumed): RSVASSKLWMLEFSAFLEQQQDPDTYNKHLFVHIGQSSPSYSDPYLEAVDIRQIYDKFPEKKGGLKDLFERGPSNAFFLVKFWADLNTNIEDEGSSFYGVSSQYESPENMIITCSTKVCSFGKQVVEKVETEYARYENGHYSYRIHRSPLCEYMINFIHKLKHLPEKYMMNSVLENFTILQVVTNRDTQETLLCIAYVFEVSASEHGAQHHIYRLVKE
# Procedure, shortened: as §1
# [1] = biological target: TEAD1 TAZ (amino acids 13-57) (Homo sapiens, UniProt P28347); test: TEAD1-TAZ HTRF (TR-FRET) protein-protein interaction assay; conditions: for TEAD1 TAZ HTRF combined: Max % Inhibition: TEAD1, TAZ peptide; for pEC50: TEAD1-TAZ HTRF, TR-FRET 665 nm/615 nm, read-out: TEAD1 TAZ HTRF combined: EC50
# Sequence of TEAD1 TAZ (amino acids 13-57) (P28347 167-426 limits assumed): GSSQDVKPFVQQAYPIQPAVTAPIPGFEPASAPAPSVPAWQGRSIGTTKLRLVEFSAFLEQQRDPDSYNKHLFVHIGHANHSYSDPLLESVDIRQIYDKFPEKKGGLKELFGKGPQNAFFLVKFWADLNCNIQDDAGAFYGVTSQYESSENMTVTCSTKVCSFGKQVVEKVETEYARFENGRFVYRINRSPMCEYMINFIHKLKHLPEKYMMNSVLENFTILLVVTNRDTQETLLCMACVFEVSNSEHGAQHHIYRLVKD
# Procedure, shortened: as §1
# [2] = biological target: TEAD2 TAZ (amino acids 13-57) (Homo sapiens, UniProt Q15562); test: TEAD2-TAZ HTRF (TR-FRET) protein-protein interaction assay; conditions: for TEAD2 TAZ HTRF combined: Max % Inhibition: TEAD2, TAZ peptide; for pEC50: TEAD2-TAZ HTRF, TR-FRET 665 nm/615 nm, read-out: TEAD2 TAZ HTRF combined: EC50
# Sequence of TEAD2 TAZ (amino acids 13-57) (Q15562 217-447): as the sequence (Q15562 217-447) above
# Procedure, shortened: as §1
# [3] = biological target: TEAD3 TAZ (amino acids 13-57) (Homo sapiens, UniProt Q99594); test: TEAD3-TAZ HTRF (TR-FRET) protein-protein interaction assay; conditions: for TEAD3 TAZ HTRF combined: Max % Inhibition: TEAD3, TAZ peptide; for pEC50: TEAD3-TAZ HTRF, TR-FRET 665 nm/615 nm, read-out: TEAD3 TAZ HTRF combined: EC50
# Sequence of TEAD3 TAZ (amino acids 13-57) (Q99594 173-435 limits assumed): as the sequence (Q99594 173-435 limits assumed) above
# Procedure, shortened: as §1
# [4] = biological target: TEAD4 TAZ (amino acids 13-57) (Homo sapiens, UniProt Q15561); test: TEAD4-TAZ HTRF (TR-FRET) protein-protein interaction assay; conditions: for TEAD4 TAZ HTRF combined: Max % Inhibition: TEAD4, TAZ peptide; for pEC50: TEAD4-TAZ HTRF, TR-FRET 665 nm/615 nm, read-out: TEAD4 TAZ HTRF combined: EC50
# Sequence of TEAD4 TAZ (amino acids 13-57) (Q15561 217-434 limits assumed): as the sequence (Q15561 217-434 limits assumed) above
# Procedure, shortened: as §1
# Sequence of TEAD1 YAP50-100 (P28347 167-426 limits assumed): as the sequence (P28347 167-426 limits assumed) above
Structure (SMILES),TEAD1 YAP50-100 HTRF combined: Max % Inhibition (TEAD1 YAP50-100) [%],pEC50 (TEAD1 YAP50-100),TEAD2 YAP50-100 HTRF combined: Max % Inhibition (TEAD2 YAP50-100) [%],pEC50 (TEAD2 YAP50-100),TEAD3 YAP50-100 HTRF combined: Max % Inhibition (TEAD3 YAP50-100) [%],pEC50 (TEAD3 YAP50-100),TEAD4 YAP50-100 HTRF combined: Max % Inhibition (TEAD4 YAP50-100) [%],pEC50 (TEAD4 YAP50-100),TEAD1 TAZ HTRF combined: Max % Inhibition [1] [%],pEC50 [1],TEAD2 TAZ HTRF combined: Max % Inhibition [2] [%],pEC50 [2],TEAD3 TAZ HTRF combined: Max % Inhibition [3] [%],pEC50 [3],TEAD4 TAZ HTRF combined: Max % Inhibition [4] [%],pEC50 [4]
"O=C(c1c(-c2cccnc2)nn2c(=O)cc(-c3ccc(C4CCCCC4)cc3)[nH]c12)N1CC(CF)C1 [Compound 37, 5-(4-Cyclohexylphenyl)-3-(3-(fluoromethyl)azetidine-1-carbonyl)-2-(pyridin-3-yl)pyrazolo[1,5-a]pyrimidin-7(4H)-one]",66.0,7.00,54.5,7.70,64.0,6.82,27.5,6.66,50.0,6.92,50.0,7.70,55.0,6.82,16.5,6.80
"O=C(c1c(-c2ccccc2)nn2c(=O)cc(-c3ccc(C4CCCCC4)cc3)[nH]c12)N1CC(CF)C1 [Compound 38, 5-(4-Cyclohexylphenyl)-3-(3-(fluoromethyl)azetidine-1-carbonyl)-2-phenylpyrazolo[1,5-a]pyrimidin-7(4H)-one]",64.0,6.68,61.5,7.52,65.0,6.66,41.0,6.70,47.5,6.66,64.0,7.70,61.0,6.60,37.5,6.89
"Cc1nccnc1-c1nn2c(=O)cc(-c3ccc(C4CCC(F)(F)CC4)cc3)[nH]c2c1C(=O)N1CC(CF)C1 [Compound 55, 5-(4-(4,4-Difluorocyclohexyl)phenyl)-3-(3-(fluoromethyl)azetidine-1-carbonyl)-2-(3-methylpyrazin-2-yl)pyrazolo[1,5-a]pyrimidin-7(4H)-one]",72.0,6.59,56.5,7.22,62.0,6.70,44.5,6.85,67.0,6.62,60.0,7.30,55.0,6.68,39.5,6.96
"O=C(c1c(-c2ncccn2)nn2c(=O)cc(-c3ccc(C4(C5CCCC5)CC4)cc3)[nH]c12)N1CC(CF)C1 [Compound 57, 5-(4-(1-Cyclopentylcyclopropyl)phenyl)-3-(3-(fluoromethyl)azetidine-1-carbonyl)-2-(pyrimidin-2-yl)pyrazolo[1,5-a]pyrimidin-7(4H)-one]",56.0,7.10,51.0,7.70,53.0,7.00,35.0,7.15,46.5,7.15,53.5,8.00,50.5,7.05,54.5,7.22

# Stronger by pEC50 (TEAD1 YAP50-100), values ahead:
TEAD1 YAP50-100 HTRF combined: Max % Inhibition (TEAD1 YAP50-100) [%],pEC50 (TEAD1 YAP50-100),TEAD2 YAP50-100 HTRF combined: Max % Inhibition (TEAD2 YAP50-100) [%],pEC50 (TEAD2 YAP50-100),TEAD3 YAP50-100 HTRF combined: Max % Inhibition (TEAD3 YAP50-100) [%],pEC50 (TEAD3 YAP50-100),TEAD4 YAP50-100 HTRF combined: Max % Inhibition (TEAD4 YAP50-100) [%],pEC50 (TEAD4 YAP50-100),TEAD1 TAZ HTRF combined: Max % Inhibition [1] [%],pEC50 [1],TEAD2 TAZ HTRF combined: Max % Inhibition [2] [%],pEC50 [2],TEAD3 TAZ HTRF combined: Max % Inhibition [3] [%],pEC50 [3],TEAD4 TAZ HTRF combined: Max % Inhibition [4] [%],pEC50 [4],Structure (SMILES)
57.0,7.22,61.0,8.00,49.5,7.00,33.0,7.52,57.0,7.15,60.0,8.00,43.0,6.96,35.0,7.70,"Cc1nccnc1-c1nn2c(=O)cc(-c3ccc(C(F)(F)C4CCCC4)cc3)[nH]c2c1C(=O)N1CC(CF)C1 [Compound 56, 5-(4-(Cyclopentyldifluoromethyl)phenyl)-3-(3-(fluoromethyl)azetidine-1-carbonyl)-2-(3-methylpyrazin-2-yl)pyrazolo[1,5-a]pyrimidin-7(4H)-one]"
65.0,7.30,62.0,7.70,61.5,7.22,34.5,6.19,37.5,7.05,56.5,7.70,53.5,7.22,18.0,6.43,"O=C(c1c(-c2cnco2)nn2c(=O)cc(-c3ccc(C4CCCCC4)cc3)[nH]c12)N1CC(CF)C1 [Compound 39, 5-(4-Cyclohexylphenyl)-3-(3-(fluoromethyl)azetidine-1-carbonyl)-2-(oxazol-5-yl)pyrazolo[1,5-a]pyrimidin-7(4H)-one]"
70.0,7.30,68.0,7.70,57.0,6.82,66.0,6.74,62.0,7.22,69.0,7.70,48.0,6.74,58.0,6.82,"CC(C)c1ccc(COc2cc(=O)n3nc(-c4cnccn4)c(C(=O)N4CC(CF)C4)c3[nH]2)cc1 [Compound 52, 3-(3-(Fluoromethyl)azetidine-1-carbonyl)-5-((4-isopropylbenzyl)oxy)-2-(pyrazin-2-yl)pyrazolo[1,5-a]primidin-7(4H)-one]"
72.0,7.30,64.5,7.70,58.5,6.96,65.5,7.30,62.5,7.15,67.0,7.70,46.0,7.05,51.5,7.52,"CC(C)(C)c1ccc(COc2cc(=O)n3nc(-c4cnccn4)c(C(=O)N4CC(CF)C4)c3[nH]2)cc1 [Compound 53, 5-((4-(Tert-butyl)benzyl)oxy)-3-(3-(fluoromethyl)azetidine-1-carbonyl)-2-(pyrazin-2-yl)pyrazolo[1,5-a]pyrimidin-7(4H)-one]"
71.0,7.30,59.0,7.70,56.5,7.10,60.5,7.40,63.0,7.15,59.5,7.70,45.0,7.05,56.0,7.40,"CC(C)(C)c1ccc(COc2cc(=O)n3nc(-c4ncccn4)c(C(=O)N4CC(CF)C4)c3[nH]2)cc1 [Compound 54, 5-((4-(Tert-butyl)benzyl)oxy)-3-(3-(fluoromethyl)azetidine-1-carbonyl)-2-(pyrimidin-2-yl)pyrazolo[1,5-a]pyrimidin-7(4H)-one]"
